In PubChem BioAssay AID330 (DTP/NCI, 2004) one finds T/C data, which are given here for 21 compounds.

The subject of this test is P388 leukemia ip, CD2F1 mice, survival T/C. The test is described as follows: NCI In Vivo Anticancer Drug Screen. Data for tumor model P388 Leukemia (intraperitoneal) in CD2F1 (CDF1) mice. The following applies: endpoint: median survival time, higher = longer survival. The essentials:
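Mice carrying the transplanted tumor received test compound or vehicle. Survival was recorded in each group, and the value is the treated-group measurement divided by that of the vehicle-treated control group.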

Setting [1] is: dose: 12.5 mg/kg/injection, schedule: Q01DX009 (ip), vehicle: saline.
[2] abbreviates: dose: 50.0 mg/kg/injection, schedule: Q01DX005 (ip), vehicle: saline with Tween-80.
The mark [3] stands for this setting: dose: 60.0 mg/kg/injection, schedule: Q01DX005 (ip), vehicle: saline with Tween-80.
Where [4] appears, read: dose: 100.0 mg/kg/injection, schedule: Q01DX005 (ip), vehicle: saline with Tween-80.
Setting [5] is: dose: 120.0 mg/kg/injection, schedule: Q01DX005 (ip), vehicle: saline with Tween-80.
The mark [6] stands for this setting: dose: 200.0 mg/kg/injection, schedule: Q01DX005 (ip), vehicle: saline with Tween-80.
Where [7] appears, read: dose: 240.0 mg/kg/injection, schedule: Q01DX005 (ip), vehicle: saline with Tween-80.
The mark [8] stands for this setting: dose: 25.0 mg/kg/injection, schedule: Q01DX005 (ip), vehicle: Klucel (hydroxypropylcellulose) (HPC).
Setting [9] is: dose: 50.0 mg/kg/injection, schedule: Q01DX005 (ip), vehicle: Klucel (hydroxypropylcellulose) (HPC).
Where [10] appears, read: dose: 100.0 mg/kg/injection, schedule: Q01DX005 (ip), vehicle: Klucel (hydroxypropylcellulose) (HPC).
[11] abbreviates: dose: 200.0 mg/kg/injection, schedule: Q01DX005 (ip), vehicle: Klucel (hydroxypropylcellulose) (HPC).
Setting [12] is: dose: 50.0 mg/kg/injection, schedule: Q01DX009 (ip), vehicle: Klucel (hydroxypropylcellulose) (HPC).
[13] abbreviates: dose: 100.0 mg/kg/injection, schedule: Q01DX009 (ip), vehicle: Klucel (hydroxypropylcellulose) (HPC).

SMILES strings stand for the structures. Where “and” joins values, the source holds several entries; their conditions need not be identical. Equal values may be shown once. Inconclusive results and toxic doses are left out.

In the case of `Nc1ncnc2c(C3OC(CO)C(O)C3O)[nH]nc12` (stereo unspecified), the T/C (dose: 1.25 mg/kg/injection, schedule: Q01DX009 (ip), vehicle: saline) was 109 % of control; the T/C (dose: 2.5 mg/kg/injection, schedule: Q01DX009 (ip), vehicle: saline) is 109 % of control; the T/C (dose: 5.0 mg/kg/injection, schedule: Q01DX009 (ip), vehicle: saline) is 118 % of control; the T/C (dose: 5.56 mg/kg/injection, schedule: Q01DX009 (ip), vehicle: saline) was 109 % of control; the T/C (dose: 6.25 mg/kg/injection, schedule: Q01DX009 (ip), vehicle: saline sonified) is 104 % of control; the T/C (dose: 8.33 mg/kg/injection, schedule: Q01DX009 (ip), vehicle: saline) is 90 % of control. In addition, the T/C by setting is: (dose: 12.0 mg/kg/injection, schedule: Q01DX009 (ip), vehicle: saline sonified) 105 % of control; under setting [1], 122 % of control; (dose: 18.7 mg/kg/injection, schedule: Q01DX009 (ip), vehicle: saline) 90 % of control.
As for `CN1C(c2ccccc2)=C(C#N)C(=O)CC(c2ccccc2)N1C` (stereo unspecified), the T/C (dose: 5.0 mg/kg/injection, schedule: Q01DX005 (ip), vehicle: saline with Tween-80) was 102 % of control; the T/C (dose: 10.0 mg/kg/injection, schedule: Q01DX005 (ip), vehicle: saline with Tween-80) was 105 % of control; the T/C (dose: 20.0 mg/kg/injection, schedule: Q01DX005 (ip), vehicle: saline with Tween-80) is 102 % of control; the T/C (dose: 40.0 mg/kg/injection, schedule: Q01DX005 (ip), vehicle: saline with Tween-80) is 102 % of control; the T/C under setting [2] was 101 % of control; the T/C under setting [3] is 120 % of control. For the same compound, the T/C runs as follows: under setting [4], 93 % of control; under setting [5], 103 % of control; under setting [6], 104 % of control; under setting [7], 94 % of control.
As for `c1cc2nc(-c3ccc4oc(C5=NCCN5)cc4c3)[nH]c2cc1C1=NCCN1`, the T/C by setting is: (dose: 12.5 mg/kg/injection, schedule: Q01DX005 (ip), vehicle: saline) 98 % of control; (dose: 25.0 mg/kg/injection, schedule: Q01DX005 (ip), vehicle: saline) 113 % of control; (dose: 50.0 mg/kg/injection, schedule: Q01DX005 (ip), vehicle: saline) 113 % of control and 118 % of control.
As for `Cc1nn(C23CC4CC(CC(C4)C2)C3)c(C(Cl)Cl)c1Cl`, the T/C under setting [3] is 100 % of control, the T/C under setting [5] was 94 % of control and the T/C under setting [7] is 94 % of control.
As to `CC(=O)OCC12C(OC(=O)c3ccccc3)C(=O)C3C(OC(C)=O)C1(OC3(C)C)C(C)(O)CC(OC(C)=O)C2OC(=O)/C=C/c1ccccc1` (stereo unspecified) (tested in a mixture with another compound), the T/C under setting [8] was 100 % of control, the T/C under setting [9] was 100 % of control, the T/C under setting [10] is 102 % of control and the T/C under setting [11] was 102 % of control.
Take `O=C1C=C(NCCNCCO)C(=O)c2ccccc21`: the T/C was 96 % of control (dose: 6.25 mg/kg/injection, schedule: Q01DX009 (ip), vehicle: distilled water + Tween-80); 98 % of control and 95 % of control (dose: 12.5 mg/kg/injection, schedule: Q01DX009 (ip), vehicle: distilled water + Tween-80); 109 % of control and 95 % of control (dose: 25.0 mg/kg/injection, schedule: Q01DX009 (ip), vehicle: distilled water + Tween-80); 111 % of control and 94 % of control (dose: 50.0 mg/kg/injection, schedule: Q01DX009 (ip), vehicle: distilled water + Tween-80); 88 % of control and 97 % of control (dose: 100.0 mg/kg/injection, schedule: Q01DX009 (ip), vehicle: distilled water + Tween-80).
On to `CN(C)B(N(C)C)N(C)C`, for which the T/C is, setting by setting: under setting [3], 101 % of control; under setting [5], 102 % of control.
As for `NC(=O)C1=NOC(C(N)=O)C1C1OC(CO)C(O)C1O` (stereo unspecified), the T/C reads like this: (dose: 25.0 mg/kg/injection, schedule: Q01DX005 (ip), vehicle: other) 98 % of control; (dose: 50.0 mg/kg/injection, schedule: Q01DX005 (ip), vehicle: other) 97 % of control; (dose: 100.0 mg/kg/injection, schedule: Q01DX005 (ip), vehicle: other) 95 % of control; (dose: 200.0 mg/kg/injection, schedule: Q01DX005 (ip), vehicle: other) 105 % of control.
Consider `Oc1ccccc1-c1nc2c3ccccc3c3ccccc3c2[nH]1`, for which the T/C is 113 % of control under setting [2], 111 % of control under setting [4] and 113 % of control under setting [6].
With `OC1CC2CCCCC2CC1Cl` (stereo unspecified), the T/C runs as follows: under setting [12], 90 % of control; under setting [13], 100 % of control; (dose: 200.0 mg/kg/injection, schedule: Q01DX009 (ip), vehicle: Klucel (hydroxypropylcellulose) (HPC)) 100 % of control.
For the compound `Cc1ccc(NC(=O)Oc2cc(C)c(Br)c(C)c2)cc1[N+](=O)[O-]`, the T/C runs as follows: under setting [1], 95 % of control; (dose: 25.0 mg/kg/injection, schedule: Q01DX009 (ip), vehicle: saline) 97 % of control; (dose: 50.0 mg/kg/injection, schedule: Q01DX009 (ip), vehicle: saline + alcohol) 98 % of control; (dose: 50.0 mg/kg/injection, schedule: Q01DX009 (ip), vehicle: saline) 101 % of control; (dose: 200.0 mg/kg/injection, schedule: Q01DX009 (ip), vehicle: saline + alcohol) 100 % of control.
For `COC(=O)CC(C(=O)OC)C(C(=O)OC)C(C(=O)OC)C(CC(=O)OC)C(=O)OC` (stereo unspecified), the T/C runs as follows: (dose: 100.0 mg/kg/injection, schedule: Q04DX002 (ip), vehicle: saline with Tween-80) 98 % of control; (dose: 200.0 mg/kg/injection, schedule: Q04DX002 (ip), vehicle: saline with Tween-80) 104 % of control; (dose: 400.0 mg/kg/injection, schedule: Q04DX002 (ip), vehicle: saline with Tween-80) 102 % of control.
Take `COc1cc(-c2nn(CN3CCOCC3)c(=S)o2)cc(OC)c1OC`: the T/C is 96 % of control under setting [9], 97 % of control under setting [10] and 99 % of control under setting [11].
`Cc1ccc(N(CN2C(=O)CCC2=O)CS(=O)(=O)c2ccc(C)cc2)cc1`: the T/C reads like this: (dose: 60.0 mg/kg/injection, schedule: Q01DX005 (ip), vehicle: Klucel (hydroxypropylcellulose) (HPC)) 97 % of control; (dose: 120.0 mg/kg/injection, schedule: Q01DX005 (ip), vehicle: Klucel (hydroxypropylcellulose) (HPC)) 98 % of control and 93 % of control; (dose: 240.0 mg/kg/injection, schedule: Q01DX005 (ip), vehicle: Klucel (hydroxypropylcellulose) (HPC)) 93 % of control and 96 % of control.
With `Cc1ccc(O)c(C(=NCCN=C(c2ccccc2)c2cc(C)ccc2O)c2ccccc2)c1.[Cu]`, the T/C by setting is: under setting [8], 98 % of control; under setting [9], 98 % of control; under setting [10], 96 % of control; under setting [11], 90 % of control.
Consider `Nc1ccc(C(OC(=O)c2cc3ccccc3c(Cc3c(O)c(C(=O)OC(c4ccc(N)cc4)(c4ccc(N)cc4)c4ccc(N)cc4)cc4ccccc34)c2O)(c2ccc(N)cc2)c2ccc(N)cc2)cc1`, for which, under “dose: 6.25 mg/kg/injection, schedule: Q01DX009 (ip), vehicle: saline with Tween-80”, the T/C is 117 % of control.
Regarding `COC1=CC(=Nc2ccc(N(CCCl)CCCl)cc2)C=CC1=O`, the T/C is, setting by setting: (dose: 25.0 mg/kg/injection, schedule: Q01DX009 (ip), vehicle: Klucel (hydroxypropylcellulose) (HPC)) 159 % of control; under setting [12], 151 % of control and 154 % of control; under setting [13], 159 % of control and 174 % of control.
For `CCOC(=O)C[C@@]1(C)C(=O)O[C@H](c2ccccc2)N1C(=O)c1ccccc1`, the T/C reads like this: under setting [3], 106 % of control; under setting [5], 100 % of control; under setting [7], 94 % of control.
For the compound `CCCCc1ccc2nc(C)cc(N/N=C/c3ccc(OC)c4ccccc34)c2c1`, the T/C was 100 % of control (dose: 12.5 mg/kg/injection, schedule: Q01DX005 (ip), vehicle: Klucel (hydroxypropylcellulose) (HPC)); 98 % of control under setting [8]; 87 % of control under setting [9]; 100 % of control under setting [11].
Take `O=C1c2cc(F)ccc2OC2CCON12` (stereo unspecified): the T/C by setting is: (dose: 100.0 mg/kg/injection, schedule: Q01DX001 (ip), vehicle: Klucel (hydroxypropylcellulose) (HPC)) 97 % of control; (dose: 200.0 mg/kg/injection, schedule: Q01DX001 (ip), vehicle: Klucel (hydroxypropylcellulose) (HPC)) 97 % of control; (dose: 400.0 mg/kg/injection, schedule: Q01DX001 (ip), vehicle: Klucel (hydroxypropylcellulose) (HPC)) 103 % of control.
Turning to `CC(C)CNCC(=O)Nc1ccc(-c2ccc(NC(=O)CNCC(C)C)cc2)cc1`, the T/C by setting is: under setting [9], 97 % of control; under setting [10], 97 % of control; under setting [11], 95 % of control.
